Reference: US20200054651A1, “COMPOSITIONS AND METHODS FOR MODULATING PPP2R1A” (The Regents of the University of California, priority 2017, published 2020)

Assays:
C377 of PPP2R1A = target: T1, C377 of PPP2R1A (Homo sapiens, UniProt P30153); assay: isoTOP-ABPP after in situ treatment of 231MFP cells; format: binding; settings: 4 h in 231MFP cells in situ, IAyne labeling ex situ
T1 construct: pre-incubating withaferin A (10 μM) for 30 min in 231MFP breast cancer cell proteomes; endogenous in cells; host or cells: 231MFP breast cancer cells (MDA-MB-231 derived)
T1 sequence (P30153 whole entry): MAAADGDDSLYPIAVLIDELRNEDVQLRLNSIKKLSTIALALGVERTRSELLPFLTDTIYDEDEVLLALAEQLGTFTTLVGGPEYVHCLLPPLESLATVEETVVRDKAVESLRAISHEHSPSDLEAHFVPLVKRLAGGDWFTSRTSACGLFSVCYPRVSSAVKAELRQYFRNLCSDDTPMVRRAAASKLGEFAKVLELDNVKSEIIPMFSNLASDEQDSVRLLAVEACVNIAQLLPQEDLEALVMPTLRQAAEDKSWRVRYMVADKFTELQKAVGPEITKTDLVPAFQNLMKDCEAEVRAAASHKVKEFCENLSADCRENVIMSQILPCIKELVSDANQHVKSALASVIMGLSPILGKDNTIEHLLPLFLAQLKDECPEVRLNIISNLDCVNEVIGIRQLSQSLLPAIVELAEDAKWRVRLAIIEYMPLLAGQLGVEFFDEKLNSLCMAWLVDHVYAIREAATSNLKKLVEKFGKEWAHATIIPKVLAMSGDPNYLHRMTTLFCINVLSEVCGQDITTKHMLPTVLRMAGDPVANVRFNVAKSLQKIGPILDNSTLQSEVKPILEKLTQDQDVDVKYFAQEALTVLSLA
Method: IsoTOP-ABPP studies were performed using the methods described in “Nature 534(7608), 570-574 (2016)” by Backus K. M., et al. and “Nature 468(7325), 790-795 (2010)” by Weerapana E., et al. […] Then, IAyne (iodoacetamide-alkyne) labeling was performed for 1 hour at room temperature. CuAAC was used by sequential addition of tris(2-carboxyethyl)phosphine (1 mM), tris[(1-benzyl-1H-1,2,3-triazol-4-yl)methyl]amine (34 μM), copper (II) sulfate (1 mM), and biotin-linker-azide where the linker was functionalized with a TEV protease recognition sequence along with an isotopically light or heavy valine for treatment of control or treated proteome, respectively. After click reactions, proteomes were precipitated by centrifugation at 6500×g, washed in ice-cold methanol, combined in a 1:1 control/treated ratio, washed again, then denatured and re-solubilized by heating in 1.2% SDS/PBS to 80° C. for 5 minutes. Insoluble components were precipitated by centrifugation at 6500×g and soluble proteome was diluted in 0.2% SDS/PBS (5 ml). Labeled proteins were bound to avidin-agarose beads (170 μl re-suspended beads/sample) while rotating overnight at 4° C. Bead-linked proteins were enriched by washing three times each in PBS and water, then re-suspended in urea/PBS (6 M), reduced in TCEP (1 mM), alkylated with iodoacetamide (18 mM), then washed and re-suspended in urea/PBS (2 M), and finally trypsinized overnight with 0.5 μg/μl sequencing grade trypsin. Tryptic peptides were eluted off. Beads were washed in PBS (3 times) and water (3 times), washed in TEV buffer solution (water, TEV buffer, 100 μM dithiothreitol), and re-suspended in buffer with Ac-TEV protease and then incubated overnight. Peptides were diluted in water, acidified with formic acid (1.2 M), and prepared for analysis.
Peptides from all proteomic experiments were pressure-loaded onto an Agilent 600 series RP-HPLC system equipped with a capillary tubing (250 mm) packed with Aqua C18 reverse-phase resin (4 cm). The system was previously equilibrated with a gradient (0% B to 100% B over 10 minutes, 100% B for 5 minutes, then 0% B for 5 minutes; buffer A: 95:5 water:acetonitrile, 0.1% formic acid; buffer B: 80:20 acetonitrile:water, 0.1% formic acid). The samples were then attached using a MicroTee PEEK 360 μm fitting to a laser pulled column (13 cm) packed with Aqua C18 reverse-phase resin (10 cm) and strong-cation exchange resin (3 cm) for isoTOP-ABPP studies. Samples were analyzed using an Q Exactive Plus mass spectrometer using a 5-step Multidimensional Protein Identification Technology (MudPIT) program. The system was run using a gradient (5% B to 55% B; buffer A: 95:5 water:acetonitrile, 0.1% formic acid; buffer B: 80:20 acetonitrile:water, 0.1% formic acid), along with a salt bump feeding aqueous ammonium acetate (500 mM) at an increment of 0%, 25%, 50%, 80%, to 100%. Data was collected in data-dependent acquisition mode with dynamic exclusion enabled (60 sec). One full MS scan (400-1800 m/z) (MS1 scan) was conducted, followed by MS2 scan (ITMS) (15 times) of the most abundant ions. Heated capillary temperature was set to 200° C. and the nanospray voltage was set to 2.75 kV.
Data was extracted in the form of MS1 and MS2 files using Raw Extractor 1.9.9.2 and searched against the Uniprot […] database using ProLuCID search methodology in IP2 v.3, described in “J Proteomics 129:16-24 (2015)” by Xu T, et al. Cysteine residues were searched with a static modification for carboxyaminomethylation (+m/z 57.02146), up to two differential modifications for methionine oxidation, and either the light or heavy TEV tags (+m/z 464.28596 or +m/z 470.29977, respectively). Peptides were required to have at least one tryptic end and to contain the TEV modification. ProLUCID data was filtered through DTASelect to achieve a peptide false-positive rate below 1%. […]

[1] = tested on: phosphorylated AKT (p-AKT); assay: Western blot of phosphorylated AKT in 231MFP cells; format: cell-based
Method: Antibodies to vinculin, phospho-Akt (Ser473), and Akt were obtained from a commercial source and proteomes were blotted per recommended manufacturer's' procedure. Cells were lysed in lysis buffer (containing the following: 20 mM Tris pH 7.5, 150 mM NaCl, 1 mM EDTA, 1 mM EGTA, 1% Triton X-100, 2.5 mM pyrophosphate, 50 mM NaF, 5 mM (3-glycero-phosphate, 1 mM Na3VO4, 50 nM calyculin A, and protease inhibitors). Lysate was incubated on a rotator at 4° C. for 30 min, and insoluble material was removed via centrifugation at a max speed for 10 minutes. Proteins were resolved by SDS/PAGE and transferred to nitrocellulose membranes using the iBlot system. Blots were blocked with 5% nonfat milk in Tris-buffered saline containing Tween 20 (TBST) solution for 1 hour at room temperature, washed in TBST, and probed with primary antibody diluted in a manufacturer recommended diluent overnight at 4° C. Following washes with TBST, the blots were incubated in the dark with secondary antibodies purchased from Rockland and used at 1:10 000 dilution in 5% nonfat milk in TBST at room temperature. Blots were visualized using an Odyssey Li-Cor scanner after additional washes.

[2] = tested on: 231MFP breast cancer cells; assay: 231MFP cell proliferation (Hoechst staining); format: cell-based; settings: 48 h; for cell proliferation: 231MFP

Compound | isotopically light to heavy ratio, C377 of PPP2R1A (C377 of PPP2R1A; 100 μM) | phosphorylated AKT levels ([1]; 100 μM, 5 h) | cell proliferation ([2]; 100 μM) | isotopically light to heavy ratio, C377 of PPP2R1A (C377 of PPP2R1A; 10 μM) | phosphorylated AKT levels ([1]; 10 μM, 4 h) | phosphorylated AKT levels with cantharidin co-treatment ([1]; 10 μM, 4 h, co-treatment with cantharidin (10 μM, 4 h)) | cell proliferation ([2]; 10 μM) | EC50 ([2]; serum-containing media, Hoechst staining, read-out: 50% effective concentration (EC50), impairment of 231MFP cell proliferation) [µM]
O=C(CCl)Nc1ccc2c(c1)OCCO2 [DKM 2-90, 2-Chloro-N-(2,3-dihydrobenzo[β][1,4]dioxin-6-yl)acetamide] | 5.9 | inhibit AKT signaling | lead compounds | – | – | – | – | –
O=C(CCl)N(Cc1ccccc1)c1ccc2c(c1)OCCO2 [JNS 1-40, N-benzyl-2-chloro-N-(2,3-dihydrobenzo[b][1,4]dioxin-6-yl)acetamide] | > 5 | significantly reduced phosphorylated AKT levels | impaired | – | – | – | – | –
CC1=C(CO)C(=O)O[C@@H]([C@@H](C)[C@H]2CC[C@H]3[C@@H]4C[C@H]5O[C@]56[C@@H](O)C=CC(=O)[C@]6(C)[C@H]4CC[C@]23C)C1 [withaferin A, reference compound] | – | – | – | 4.0 | reduced phosphorylated AKT levels | rescued | impairs | 7.5
